The record followed here is patent publication US20250282799A1, “SUBSTITUTED PYRIDO[4,3-d]PYRIMIDINES AS KRAS MODULATORS” (Alterome Therapeutics, Inc., priority 2023, published 2025).

pIC50: −log10 of the molar value. A value given as a limit tells only on which side of the number the result lay.

The subject of the assay is KRAS G12V dependent lung adenocarcinoma cell line, NCI-H441. Briefly: Cellular pERK (Thr202/Tyr204) FRET/HTRF assay. The class given is cell-based. As to conditions: Homo sapiens, NCI-H441, cellular pERK (Thr202/Tyr204) HTRF, NCI-H441 cells. The method, boiled down: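 IC50 reflects inhibition of ERK1/2 Thr202/Tyr204 phosphorylation, quantified by HTRF after a 1 hr treatment of KRAS G12V-driven NCI-H441 cells. DMSO served as negative control.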

In the case of `[2H]C([2H])(Oc1nc(N2CCOC[C@H]3[C@H](Cl)[C@H]32)c2cnc(-c3cccc4ccc(Cl)c(C#C)c34)c(F)c2n1)[C@@]12CCCN1C[C@H](F)C2` [Example 320, (1S,7S,8S)-8-chloro-2-(7-(7-chloro-8-ethynylnaphthalen-1-yl)-8-fluoro-2-(((2R,7aS)-2-fluorotetrahydro-1H-pyrrolizin-7a(5H)-yl)methoxy-d2)pyrido[4,3-d]pyrimidin-4-yl)-5-oxa-2-azabicyclo[5.1.0]octane], the pIC50 (as a rule, the IC50 on a negative log10 scale, so that one unit is a factor of ten) is greater than 7.30.
Consider `C#Cc1c(Cl)ccc2cc(N)cc(-c3ncc4c(N5CCOC[C@H]6[C@H](Cl)[C@H]65)nc(OC[C@@H]5CCCN5C)nc4c3F)c12` [Example 321, 6-chloro-4-(4-((1S,7S,8S)-8-chloro-5-oxa-2-azabicyclo[5.1.0]octan-2-yl)-8-fluoro-2-(((S)-1-methylpyrrolidin-2-yl)methoxy)pyrido[4,3-d]pyrimidin-7-yl)-5-ethynylnaphthalen-2-amine], for which the pIC50 was greater than 7.30.
Next, `C#Cc1cccc2cc(N)cc(-c3ncc4c(N5CCOC[C@H]6[C@H](Cl)[C@H]65)nc(OC[C@@H]5CCCN5C)nc4c3F)c12` [Example 322, 4-(4-((1S,7S,8S)-8-chloro-5-oxa-2-azabicyclo[5.1.0]octan-2-yl)-8-fluoro-2-(((S)-1-methylpyrrolidin-2-yl)methoxy)pyrido[4,3-d]pyrimidin-7-yl)-5-ethynylnaphthalen-2-amine]: greater than 7.30.
Next, `[2H]C([2H])(Oc1nc(N2CCOC[C@H]3[C@H](F)[C@H]32)c2c(OC(C)C)nc(-c3cc(N)cc4ccc(F)c(C#C)c34)c(F)c2n1)[C@@]12CCCN1C[C@H](F)C2` [Example 323, 5-ethynyl-6-fluoro-4-(8-fluoro-4-((1S,7S,8S)-8-fluoro-5-oxa-2-azabicyclo[5.1.0]octan-2-yl)-2-(((2R,7aS)-2-fluorotetrahydro-1H-pyrrolizin-7a(5H)-yl)methoxy-d2)-5-isopropoxypyrido[4,3-d]pyrimidin-7-yl)naphthalen-2-amine]: greater than 7.30; `[2H]C([2H])(Oc1nc(N2CCOC[C@H]3[C@H](F)[C@H]32)c2cnc(-c3cc(O)cc4ccc(C)c(C#C)c34)c(F)c2n1)[C@@]12CCCN1C[C@H](F)C2` [Example 324, 5-ethynyl-4-(8-fluoro-4-((1S,7S,8S)-8-fluoro-5-oxa-2-azabicyclo[5.1.0]octan-2-yl)-2-(((2R,7aS)-2-fluorotetrahydro-1H-pyrrolizin-7a(5H)-yl)methoxy-d2)pyrido[4,3-d]pyrimidin-7-yl)-6-methylnaphthalen-2-ol]: greater than 7.30; `[2H]C([2H])(Oc1nc(N2CCOC[C@H]3[C@H](F)[C@H]32)c2cnc(-c3cccc4ccc(C)c(C#C)c34)c(F)c2n1)[C@@]12CCCN1C[C@H](F)C2` [Example 325, (1S,7S,8S)-2-(7-(8-ethynyl-7-methylnaphthalen-1-yl)-8-fluoro-2-(((2R,7aS)-2-fluorotetrahydro-1H-pyrrolizin-7a(5H)-yl)methoxy-d2)pyrido[4,3-d]pyrimidin-4-yl)-8-fluoro-5-oxa-2-azabicyclo[5.1.0]octane]: greater than 7.30.
Next, `C#Cc1c(Cl)ccc2cc(N)cc(-c3ncc4c(N5CCOC[C@@H]6[C@@H](Cl)[C@@H]65)nc(OC[C@@H]5CCCN5C)nc4c3F)c12` [Example 326, 6-chloro-4-(4-((1R,7R,8R)-8-chloro-5-oxa-2-azabicyclo[5.1.0]octan-2-yl)-8-fluoro-2-(((S)-1-methylpyrrolidin-2-yl)methoxy)pyrido[4,3-d]pyrimidin-7-yl)-5-ethynylnaphthalen-2-amine]: 6.30 to 7.30; `C#Cc1cccc2cc(N)cc(-c3ncc4c(N5CCOC[C@@H]6[C@@H](Cl)[C@@H]65)nc(OC[C@@H]5CCCN5C)nc4c3F)c12` [Example 327, 4-(4-((1R,7R,8R)-8-chloro-5-oxa-2-azabicyclo[5.1.0]octan-2-yl)-8-fluoro-2-(((S)-1-methylpyrrolidin-2-yl)methoxy)pyrido[4,3-d]pyrimidin-7-yl)-5-ethynylnaphthalen-2-amine]: 6.30 to 7.30; `[2H]C([2H])(Oc1nc(N2CCOC[C@H]3[C@H](F)[C@H]32)c2cc(C(F)(F)F)c(-c3cc(N)cc4ccc(F)c(C#C)c34)c(F)c2n1)[C@@]12CCCN1C[C@H](F)C2` [Example 328, 5-ethynyl-6-fluoro-4-(8-fluoro-4-((1S,7S,8S)-8-fluoro-5-oxa-2-azabicyclo[5.1.0]octan-2-yl)-2-(((2R,7aS)-2-fluorotetrahydro-1H-pyrrolizin-7a(5H)-yl)methoxy-d2)-6-(trifluoromethyl)quinazolin-7-yl)naphthalen-2-amine]: 5.00 to 6.30.
Regarding `[2H]C([2H])(Oc1nc(N2CCOC[C@H]3[C@H](F)[C@H]32)c2cnc(-c3cc(N)cc4ccc(F)c(C#C)c34)c(C)c2n1)[C@@]12CCCN1C[C@H](F)C2` [Example 329, 5-Ethynyl-6-fluoro-4-(4-((1S,7S,8S)-8-fluoro-5-oxa-2-azabicyclo[5.1.0]octan-2-yl)-2-(((2R,7aS)-2-fluorotetrahydro-1H-pyrrolizin-7a(5H)-yl)methoxy-d2)-8-methylpyrido[4,3-d]pyrimidin-7-yl)naphthalen-2-amine], the pIC50 is greater than 7.30.
On to `[2H]C([2H])(Oc1nc(N2CCOC[C@H]3[C@H](F)[C@H]32)c2cnc(-c3cc(O)c(F)c(C)c3C(F)(F)F)c(F)c2n1)[C@@]12CCCN1C[C@H](F)C2` [Example 330, 2-fluoro-5-(8-fluoro-4-((1S,7S,8S)-8-fluoro-5-oxa-2-azabicyclo[5.1.0]octan-2-yl)-2-(((2R,7aS)-2-fluorotetrahydro-1H-pyrrolizin-7a(5H)-yl)methoxy-d2)pyrido[4,3-d]pyrimidin-7-yl)-3-methyl-4-(trifluoromethyl)phenol], for which the pIC50 is 6.30 to 7.30.
With `[2H]C([2H])(Oc1nc(N2CCOC[C@H]3[C@H](F)[C@H]32)c2cnc(-c3cc(N)cc4ccc(C)c(C#C)c34)c(F)c2n1)[C@@]12CCCN1C[C@H](F)C2` [Example 331, 5-Ethynyl-4-(8-fluoro-4-((1S,7S,8S)-8-fluoro-5-oxa-2-azabicyclo[5.1.0]octan-2-yl)-2-(((2R,7aS)-2-fluorotetrahydro-1H-pyrrolizin-7a(5H)-yl)methoxy-d2)pyrido[4,3-d]pyrimidin-7-yl)-6-methylnaphthalen-2-amine] the figure was greater than 7.30; with `[2H]C([2H])(Oc1nc(N2CCOC[C@H]3[C@H](F)[C@H]32)c2cnc(-c3cccc4ccc(C(F)(F)F)c(C#C)c34)c(F)c2n1)[C@@]12CCCN1C[C@H](F)C2` [Example 332, (1S,7S,8S)-2-(7-(8-ethynyl-7-(trifluoromethyl)naphthalen-1-yl)-8-fluoro-2-(((2R,7aS)-2-fluorotetrahydro-1H-pyrrolizin-7a(5H)-yl)methoxy-d2)pyrido[4,3-d]pyrimidin-4-yl)-8-fluoro-5-oxa-2-azabicyclo[5.1.0]octane], 6.30 to 7.30.
Next, `[2H]C([2H])(Oc1nc(N2CCOC[C@H]3[C@H](F)[C@H]32)c2cnc(-c3cc(N)cc4ccc(F)c(C#C)c34)c(F)c2n1)[C@@]12CCCN1[C@H](C)[C@H](F)C2` [Example 333, 5-Ethynyl-6-fluoro-4-(8-fluoro-2-(((2R,3R,7aS)-2-fluoro-3-methyltetrahydro-1H-pyrrolizin-7a(5H)-yl)methoxy-d2)-4-((1S,7S,8S)-8-fluoro-5-oxa-2-azabicyclo[5.1.0]octan-2-yl)pyrido[4,3-d]pyrimidin-7-yl)naphthalen-2-amine]: greater than 7.30; `[2H]C([2H])(Oc1nc(N2CCOC[C@H]3[C@H](F)[C@H]32)c2cnc(-c3cc(N)cc4ccc(F)c(C#C)c34)c(F)c2n1)[C@@]12CCCN1[C@@H](C)[C@H](F)C2` [Example 334, 5-ethynyl-6-fluoro-4-(8-fluoro-2-(((2R,3S,7aS)-2-fluoro-3-methyltetrahydro-1H-pyrrolizin-7a(5H)-yl)methoxy-d2)-4-((1S,7S,8S)-8-fluoro-5-oxa-2-azabicyclo[5.1.0]octan-2-yl)pyrido[4,3-d]pyrimidin-7-yl)naphthalen-2-amine]: greater than 7.30; `[2H]C([2H])(Oc1nc(N2CCOC[C@H]3[C@H](F)[C@H]32)c2cnc(-c3cc(O)cc(C)c3C(F)(F)F)c(F)c2n1)[C@@]12CCCN1C[C@H](F)C2` [Example 335, 3-(8-fluoro-4-((1S,7S,8S)-8-fluoro-5-oxa-2-azabicyclo[5.1.0]octan-2-yl)-2-(((2R,7aS)-2-fluorotetrahydro-1H-pyrrolizin-7a(5H)-yl)methoxy-d2)pyrido[4,3-d]pyrimidin-7-yl)-5-methyl-4-(trifluoromethyl)phenol]: greater than 7.30.
`C#Cc1c(C(F)(F)F)ccc2cccc(-c3ncc4c(N5CCOC[C@H]6[C@H](F)[C@H]65)nc(OC[C@]56C[C@@H](F)CN5C[C@@H](CN)C6)nc4c3F)c12` [Example 336, ((2R,6R,7aS)-7a-(((7-(8-ethynyl-7-(trifluoromethyl)naphthalen-1-yl)-8-fluoro-4-((1S,7S,8S)-8-fluoro-5-oxa-2-azabicyclo[5.1.0]octan-2-yl)pyrido[4,3-d]pyrimidin-2-yl)oxy)methyl)-6-fluorohexahydro-1H-pyrrolizin-2-yl)methanamine] had a pIC50 of 5.00 to 6.30.
As to `[2H]C([2H])(Oc1nc(N2CCOC[C@H]3[C@H](F)[C@H]32)c2cnc(-c3cc(N)cc4ccc(Cl)c(C#C)c34)c(F)c2n1)[C@@]12CCCN1[C@H](C)[C@H](F)C2` [Example 337, 6-chloro-5-ethynyl-4-(8-fluoro-2-(((2R,3R,7aS)-2-fluoro-3-methyltetrahydro-1H-pyrrolizin-7a(5H)-yl)methoxy-d2)-4-((1S,7S,8S)-8-fluoro-5-oxa-2-azabicyclo[5.1.0]octan-2-yl)pyrido[4,3-d]pyrimidin-7-yl)naphthalen-2-amine], the pIC50 was greater than 7.30.
